Results on 20 compounds are retold here after ChEMBL document CHEMBL3132747, “Design and synthesis of a novel series of N,4-diphenylpyrimidin-2-amine derivatives as potent and selective PI3K inhibitors” (Medchemcomm, 2014).

The test system of test [1] is MCF7. Nature of the test: Anticancer activity against human MCF7 cells by MTT assay. It is filed as functional, cell-based. (Tetrazolium assays rely on reduction of a dye to a coloured formazan, in cell work by metabolically active cells.)
Test [2] has as its system A549. Nature of the test: Anticancer activity against human A549 cells by MTT assay. It is filed as functional, cell-based.
Test [3] deals with HeLa. The test is described as follows: Anticancer activity against human HeLa cells by MTT assay. It is filed as functional, cell-based.
In test [4] the test system is HepG2. The test is described as follows: Anticancer activity against human HepG2 cells by MTT assay. The class given is functional, cell-based.
Test [5] has as its target Phosphatidylinositol 4,5-bisphosphate 3-kinase catalytic subunit beta isoform (Homo sapiens, UniProt P42338). The test is described as follows: Inhibition of human PI3Kbeta.
Test [6] deals with Phosphatidylinositol 4,5-bisphosphate 3-kinase catalytic subunit alpha isoform (Homo sapiens, UniProt P42336). The test is described as follows: Inhibition of human PI3Kalpha.
The target of test [7] is Phosphatidylinositol 4,5-bisphosphate 3-kinase catalytic subunit gamma isoform (Homo sapiens, UniProt P48736). Nature of the test: Inhibition of human PI3Kgamma.
Chain of Phosphatidylinositol 4,5-bisphosphate 3-kinase catalytic subunit gamma isoform (P48736 whole entry, canonical isoform): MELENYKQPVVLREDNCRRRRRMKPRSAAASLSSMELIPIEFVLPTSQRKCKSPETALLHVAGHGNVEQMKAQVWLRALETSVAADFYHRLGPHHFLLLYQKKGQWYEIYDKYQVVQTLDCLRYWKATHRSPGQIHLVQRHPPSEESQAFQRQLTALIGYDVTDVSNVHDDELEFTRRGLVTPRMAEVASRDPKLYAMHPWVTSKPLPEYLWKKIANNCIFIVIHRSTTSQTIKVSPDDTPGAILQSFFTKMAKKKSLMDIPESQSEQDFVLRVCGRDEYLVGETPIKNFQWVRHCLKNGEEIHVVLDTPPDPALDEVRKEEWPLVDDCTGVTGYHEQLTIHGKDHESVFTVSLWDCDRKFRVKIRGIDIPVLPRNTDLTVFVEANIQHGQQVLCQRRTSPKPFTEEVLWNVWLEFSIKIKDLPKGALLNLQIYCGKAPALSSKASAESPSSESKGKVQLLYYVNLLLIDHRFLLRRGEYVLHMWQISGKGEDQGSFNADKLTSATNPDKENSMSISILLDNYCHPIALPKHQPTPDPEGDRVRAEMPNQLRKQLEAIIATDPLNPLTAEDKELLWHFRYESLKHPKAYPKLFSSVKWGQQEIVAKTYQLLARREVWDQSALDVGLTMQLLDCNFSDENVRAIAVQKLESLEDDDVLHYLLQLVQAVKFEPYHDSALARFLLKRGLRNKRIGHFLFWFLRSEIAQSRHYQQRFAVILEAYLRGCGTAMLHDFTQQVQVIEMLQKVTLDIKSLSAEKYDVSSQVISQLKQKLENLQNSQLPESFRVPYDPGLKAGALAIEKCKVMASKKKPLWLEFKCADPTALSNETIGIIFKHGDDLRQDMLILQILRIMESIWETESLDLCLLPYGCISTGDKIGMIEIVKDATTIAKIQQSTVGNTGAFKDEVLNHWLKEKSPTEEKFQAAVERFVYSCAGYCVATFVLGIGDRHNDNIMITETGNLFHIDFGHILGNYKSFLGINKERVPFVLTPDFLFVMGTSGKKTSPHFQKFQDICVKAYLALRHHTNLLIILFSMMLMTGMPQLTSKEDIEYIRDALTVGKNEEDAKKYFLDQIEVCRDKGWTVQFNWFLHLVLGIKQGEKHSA

Chain of Phosphatidylinositol 4,5-bisphosphate 3-kinase catalytic subunit alpha isoform (P42336 whole entry, canonical isoform): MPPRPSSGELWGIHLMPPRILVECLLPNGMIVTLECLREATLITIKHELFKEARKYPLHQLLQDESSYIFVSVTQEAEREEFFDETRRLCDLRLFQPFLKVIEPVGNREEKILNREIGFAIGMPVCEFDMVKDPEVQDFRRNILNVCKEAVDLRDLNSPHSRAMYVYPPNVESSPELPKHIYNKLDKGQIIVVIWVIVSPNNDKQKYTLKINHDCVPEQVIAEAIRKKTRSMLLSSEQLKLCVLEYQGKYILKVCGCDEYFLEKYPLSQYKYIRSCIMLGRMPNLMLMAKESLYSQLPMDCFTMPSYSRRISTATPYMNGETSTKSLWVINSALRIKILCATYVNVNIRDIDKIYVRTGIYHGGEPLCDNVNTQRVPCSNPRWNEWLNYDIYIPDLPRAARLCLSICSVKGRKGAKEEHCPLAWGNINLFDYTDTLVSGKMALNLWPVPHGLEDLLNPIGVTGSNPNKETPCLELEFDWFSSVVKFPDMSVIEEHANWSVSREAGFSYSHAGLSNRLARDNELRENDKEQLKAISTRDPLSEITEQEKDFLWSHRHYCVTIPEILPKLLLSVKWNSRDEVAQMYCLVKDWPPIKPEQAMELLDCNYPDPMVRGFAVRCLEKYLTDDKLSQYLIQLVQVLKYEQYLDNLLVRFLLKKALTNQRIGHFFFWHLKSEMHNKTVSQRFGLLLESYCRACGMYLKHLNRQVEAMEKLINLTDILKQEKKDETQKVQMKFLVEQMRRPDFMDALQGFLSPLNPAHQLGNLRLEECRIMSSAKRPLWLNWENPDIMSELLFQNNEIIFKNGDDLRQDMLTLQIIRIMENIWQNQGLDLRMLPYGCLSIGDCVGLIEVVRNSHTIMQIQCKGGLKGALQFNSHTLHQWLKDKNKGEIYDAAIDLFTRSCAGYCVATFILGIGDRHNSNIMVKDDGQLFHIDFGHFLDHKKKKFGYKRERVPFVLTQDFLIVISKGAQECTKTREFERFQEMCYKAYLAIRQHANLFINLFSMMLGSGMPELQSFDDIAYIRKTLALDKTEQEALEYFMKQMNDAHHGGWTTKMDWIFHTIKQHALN
Chain of Phosphatidylinositol 4,5-bisphosphate 3-kinase catalytic subunit beta isoform (P42338 whole entry, canonical isoform): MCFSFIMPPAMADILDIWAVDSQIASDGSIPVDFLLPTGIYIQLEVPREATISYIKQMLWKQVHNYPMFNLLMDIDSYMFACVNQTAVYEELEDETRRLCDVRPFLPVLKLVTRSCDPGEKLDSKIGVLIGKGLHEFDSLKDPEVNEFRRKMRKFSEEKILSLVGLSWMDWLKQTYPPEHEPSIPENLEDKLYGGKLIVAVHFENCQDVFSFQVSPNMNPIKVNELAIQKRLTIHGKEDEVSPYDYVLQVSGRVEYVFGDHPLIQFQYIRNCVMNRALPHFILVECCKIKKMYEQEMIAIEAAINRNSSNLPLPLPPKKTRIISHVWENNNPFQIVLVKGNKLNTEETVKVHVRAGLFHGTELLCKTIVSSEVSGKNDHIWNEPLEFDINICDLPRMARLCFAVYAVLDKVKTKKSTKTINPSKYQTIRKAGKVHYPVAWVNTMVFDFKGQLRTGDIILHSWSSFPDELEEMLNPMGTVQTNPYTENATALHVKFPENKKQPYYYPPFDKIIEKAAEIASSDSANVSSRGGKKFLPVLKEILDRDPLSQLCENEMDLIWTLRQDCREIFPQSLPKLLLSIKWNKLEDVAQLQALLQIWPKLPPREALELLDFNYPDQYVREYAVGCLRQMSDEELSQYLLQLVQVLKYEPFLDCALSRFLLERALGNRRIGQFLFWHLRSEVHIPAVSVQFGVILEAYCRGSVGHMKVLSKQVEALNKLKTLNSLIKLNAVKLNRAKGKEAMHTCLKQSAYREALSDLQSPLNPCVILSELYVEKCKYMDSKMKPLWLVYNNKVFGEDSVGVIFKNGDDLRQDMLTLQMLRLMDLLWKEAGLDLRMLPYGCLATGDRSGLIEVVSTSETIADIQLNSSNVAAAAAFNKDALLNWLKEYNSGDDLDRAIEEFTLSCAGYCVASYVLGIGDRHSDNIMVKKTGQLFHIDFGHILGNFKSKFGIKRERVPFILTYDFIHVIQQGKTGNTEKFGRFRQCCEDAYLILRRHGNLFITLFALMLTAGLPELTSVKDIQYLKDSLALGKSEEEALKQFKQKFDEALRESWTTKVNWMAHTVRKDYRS

As to `Nc1nc(N)c2nc(-c3cccc(O)c3)cnc2n1`, the IC50 in test [1] turned out to be 1.03 µM; in test [2], 0.49 µM; in test [3], 0.15 µM; in test [4], 0.82 µM.

`Cc1cccc(Nc2nccc(-c3ccc(Cl)cc3Cl)n2)c1`: the IC50 was determined as 249 µM in test [1]; 18.4 µM in test [2]; 7.66 µM in test [3]; 13.2 µM in test [4]; 0.851 µM in test [5]; 0.813 µM in test [6]. For the same compound, the IC50 in test [7] (read-out: IC50) and in test [7] (read-out: pIC50 (converted)) was 0.274 µM throughout.

Turning to `COc1cccc(Nc2nccc(-c3ccc(Cl)cc3Cl)n2)c1`, the IC50 was 192 µM in test [1]; 32.2 µM in test [2]; 76.4 µM in test [3]; 96.9 µM in test [4]; 0.893 µM in test [5]; 0.851 µM in test [6]. Also, the IC50 in test [7] (read-out: IC50) and in test [7] (read-out: pIC50 (converted)) was 0.278 µM in each case.

As to `O=[N+]([O-])c1ccc(Nc2nccc(-c3ccc(Cl)cc3Cl)n2)cc1`, the IC50 in test [1] is 192 µM; in test [2], 119 µM; in test [3], 168 µM; in test [4], 99.3 µM; in test [5], 0.938 µM; in test [6] it was 0.953 µM. The IC50 in test [7] (read-out: IC50) and in test [7] (read-out: pIC50 (converted)) was 0.386 µM in each case.

In the case of `Clc1ccc(Nc2nccc(-c3ccc(Cl)cc3Cl)n2)c(Cl)c1`, the IC50 in test [1] is 3.18 µM; in test [2], 11.6 µM; in test [3] it was 1.56 µM; in test [4] it was 8.08 µM; in test [5] it was 0.799 µM; in test [6] it was 0.772 µM. The IC50 in test [7] (read-out: IC50) and in test [7] (read-out: pIC50 (converted)) was 0.268 µM throughout.

As to `COc1ccc(-c2ccnc(Nc3ccc(Cl)cc3)n2)cc1`, the IC50 in test [1] is 0.81 µM; in test [2], 20.9 µM; in test [3], 0.31 µM; in test [4] it was 4.5 µM; in test [5] it was 0.603 µM; in test [6], 0.552 µM. The IC50 in test [7] (read-out: IC50) and in test [7] (read-out: pIC50 (converted)) was 0.167 µM in each case.

Regarding `COc1ccc(-c2ccnc(Nc3ccc([N+](=O)[O-])cc3)n2)cc1`, the IC50 in test [1] worked out at 0.77 µM; in test [2], 2.73 µM; in test [3] it was 0.98 µM; in test [4], 1.04 µM; in test [5], 0.537 µM; in test [6] it was 0.527 µM. For the same compound, the IC50 in test [7] (read-out: IC50) and in test [7] (read-out: pIC50 (converted)) was 0.143 µM each time.

On to `COc1ccc(-c2ccnc(Nc3ccc(Cl)cc3Cl)n2)cc1`, for which the IC50 is 4.17 µM in test [1]; 7.33 µM in test [2]; 23 µM in test [3]; 0.19 µM in test [4]; 0.839 µM in test [5]; 0.738 µM in test [6]. The IC50 in test [7] (read-out: IC50) and in test [7] (read-out: pIC50 (converted)) was 0.235 µM in each case.

Regarding `Cc1ccc(-c2ccnc(Nc3ccc(Cl)cc3Cl)n2)cc1`, the IC50 in test [1] is greater than 1000 µM; in test [2], 164 µM; in test [3] it was 91.5 µM; in test [4], 344 µM; in test [5] it was greater than 1 µM; in test [6], greater than 1 µM. The IC50 in test [7] (read-out: IC50) and in test [7] (read-out: pIC50 (converted)) was 0.371 µM in each case.

Take `COc1cccc(Nc2nccc(-c3ccc(F)cc3)n2)c1`: the IC50 in test [1] is 412 µM; in test [2], 35.9 µM; in test [3], 145 µM; in test [4] it was 128 µM; in test [5], greater than 1 µM; in test [6] it was 0.88 µM. For the same compound, the IC50 in test [7] (read-out: IC50) and in test [7] (read-out: pIC50 (converted)) was 0.334 µM each time.

Turning to `O=[N+]([O-])c1ccc(Nc2nccc(-c3ccc(F)cc3)n2)cc1`, the IC50 was 0.4 µM in test [1]; 84 µM in test [2]; 3.51 µM in test [3]; 7.95 µM in test [4]; 0.863 µM in test [5]; 0.679 µM in test [6]. For the same compound, the IC50 in test [7] (read-out: IC50) and in test [7] (read-out: pIC50 (converted)) was 0.247 µM in each case.

With `Cc1cccc(Nc2nccc(-c3ccc(Br)cc3)n2)c1`, the IC50 in test [1] is 210 µM; in test [2], 63.2 µM; in test [3] it was 71 µM; in test [4] it was 74.6 µM; in test [5], greater than 1 µM; in test [6], 0.894 µM. In addition, the IC50 in test [7] (read-out: IC50) and in test [7] (read-out: pIC50 (converted)) was 0.342 µM in each case.

For `COc1cccc(Nc2nccc(-c3ccc(Br)cc3)n2)c1`, the IC50 in test [1] was 278 µM; in test [2], 82.7 µM; in test [3] it was 153 µM; in test [4], 148 µM; in test [5], 0.977 µM; in test [6] it was greater than 1 µM. For the same compound, the IC50 in test [7] (read-out: IC50) and in test [7] (read-out: pIC50 (converted)) was 0.357 µM throughout.

In the case of `CC(C)c1ccccc1Nc1nccc(-c2ccc(Br)cc2)n1`, the IC50 in test [1] came out at 111 µM; in test [2], 3.71 µM; in test [3], 11.5 µM; in test [4] it was 7.03 µM; in test [5], 0.874 µM; in test [6] it was 0.792 µM. Besides, the IC50 in test [7] (read-out: IC50) and in test [7] (read-out: pIC50 (converted)) was 0.313 µM each time.

Take `Clc1ccc(Nc2nccc(-c3ccc(Br)cc3)n2)cc1`: the IC50 in test [1] came out at 4.18 µM; in test [2], 6.11 µM; in test [3] it was 36.7 µM; in test [4], 47.5 µM; in test [5] it was 0.946 µM; in test [6] it was 0.914 µM. For the same compound, the IC50 in test [7] (read-out: IC50) and in test [7] (read-out: pIC50 (converted)) was 0.302 µM throughout.

In the case of `O=[N+]([O-])c1ccc(Nc2nccc(-c3ccc(Br)cc3)n2)cc1`, the IC50 in test [1] came out at 681 µM; in test [2], 76 µM; in test [3] it was 25.7 µM; in test [4], 43 µM; in test [5], 0.961 µM; in test [6] it was 0.946 µM. Besides, the IC50 in test [7] (read-out: IC50) and in test [7] (read-out: pIC50 (converted)) was 0.265 µM in each case.

On to `Clc1ccc(Nc2nccc(-c3ccc(Br)cc3)n2)c(Cl)c1`, for which the IC50 is 2.49 µM in test [1]; 3.78 µM in test [2]; 1.08 µM in test [3]; 0.72 µM in test [4]; 0.673 µM in test [5]; 0.591 µM in test [6]. The IC50 in test [7] (read-out: IC50) and in test [7] (read-out: pIC50 (converted)) was 0.231 µM throughout.

Consider `COc1cccc(Nc2nccc(-c3ccc(Cl)c(Cl)c3)n2)c1`, for which the IC50 in test [1] turned out to be 21 µM; in test [2], 6 µM; in test [3] it was 4.97 µM; in test [4], 3.37 µM; in test [5], 0.741 µM; in test [6], 0.625 µM. Further, the IC50 in test [7] (read-out: IC50) and in test [7] (read-out: pIC50 (converted)) was 0.217 µM in each case.

Turning to `O=[N+]([O-])c1ccc(Nc2nccc(-c3ccc(Cl)c(Cl)c3)n2)cc1`, the IC50 in test [1] stood at 3.51 µM; in test [2], 0.72 µM; in test [3], 1.84 µM; in test [4] it was 0.5 µM; in test [5], 0.573 µM; in test [6], 0.503 µM. The IC50 in test [7] (read-out: IC50) and in test [7] (read-out: pIC50 (converted)) was 0.154 µM throughout.

As for `Clc1ccc(Nc2nccc(-c3ccc(Cl)c(Cl)c3)n2)c(Cl)c1`, the IC50 in test [1] worked out at 45.6 µM; in test [2] it was 26 µM; in test [3], 23 µM; in test [4], 28.4 µM; in test [5] it was 0.926 µM; in test [6], 0.836 µM. The IC50 in test [7] (read-out: IC50) and in test [7] (read-out: pIC50 (converted)) was 0.25 µM throughout.
